Measurements as given in patent US12264170B2, “Antimicrobial organosilanes” (TOPIKOS SCIENTIFIC, INC., priority 2019, dated 2025).
Values joined by “and” are separate entries in the source; they are usually repeats but may differ in a detail not shown here. Equal entries are not always repeated.

Legend:
S. pyogenes ATCC 51339 = assay: MBC/MFC determination; format: cell-based, Steptococcus pyogenes; conditions: plated after 18 to 20 hours incubation, two values given
Protocol: (§1) 10 μL of liquid from each test condition was plated on the appropriate agar media for each test strain. For bacteria strains, plating for MBC occurred after 18 to 20 hours incubation. For the Candida species, plating for MFC occurred after 48 hours incubation, while C. herbarum plating for MFC occurred 3 days after incubation when growth in growth control wells was visually observed. Once the liquid from the 96-well plate has been allowed to air dry in a biosafety cabinet, the agar plates were incubated under the appropriate conditions and colony formation was assessed. MBC/MFC is defined as the lowest concentration of a compound in which no colonies were recovered.

[1] = tested on: Staphylococcus aureus ATCC 33591; assay: MIC microdilution assay; format: cell-based; conditions: S. aureus ATCC 33591; CAMHB; 35±2° C. 18 to 20 hours; two values given
Protocol: (§2) Strain numbers starting with “ATCC” were acquired from the American Type Culture Collection (Manassas, VA), while strain numbers starting with “CDC” were acquired from the Centers for Disease Control and Prevention (Atlanta, GA). All strains were maintained as −80° C. frozen glycerol stocks. S. aureus and P. aeruginosa were grown overnight on Tryptic Soy Agar (TSA) plates at 35±2° C., ambient atmosphere, while S. pyogenes was grown overnight on TSA+5% defibrinated sheep blood at 35±2° C., 5% CO2. All fungal species (i.e. C. albicans, C. auris and C. herbarum) were grown on Sabouraud Dextrose Agar (SDA) plates. C. herbarum was grown at 25±2° C. for 5 to 7 days, while all other fungal strains were grown at 35±2° C. overnight.
(§3) Test articles Compound 2 (batch #2G13A0.368) and Compound 23 (batch #2G17A0.372) were received and stored at 4° C. The antibiotic Tobramycin and antifungal Amphotericin B were used as quality control (QC) compounds for the MIC assay. Stock solutions of 3.2 mg/mL Tobramycin (Sigma-Aldrich, cat #T1783-500MG) and 3.2 mg/mL Amphotericin B (CP Lab Chemicals, cat #TOK-A007-1G) were prepared in sterile ultrapure water.
(§4) For bacteria strains, a few colonies of each strain were collected with a sterile swab and used to make a McFarland 0.5 standard solution (approximately 1×10^8 CFU/mL) in sterile PBS. The McFarland was then diluted 1:180 in Cation Adjusted Muller-Hinton Broth (CAMHB) for S. aureus and P. aeruginosa, and in […]+5% defibrinated sheep blood for S. pyogenes. 90 μL of this inoculum was combined with 10 μL of the 10× test article in a 96-well plate for a final concentration of 1×.
(§5) All bacterial-strain MIC 96-well plates were incubated at 35±2° C. for 18 to 20 hours, while all Candida MIC 96-well plates were incubated at 35±2° C. for 24 to 48 hours. C. herbarum MIC 96-well plates were incubated at 25±2° C. for 3 to 5 days, until growth was visible in the growth control wells. After incubation, the 96-well plates were examined visually and on a spectrophotometer at absorbance OD650. […]

[2] = tested on: Candida albicans ATCC 90028; assay: MBC/MFC determination; format: cell-based; conditions: C. albicans ATCC 90028; plated after 48 hours incubation; two values given
Protocol: as §1

Candida auris CDC 0381 [3] = assay: MBC/MFC determination; format: cell-based; conditions: C. auris CDC 0381; plated after 48 hours incubation; two values given
Protocol: as §1

[4] = tested on: Cladosporium herbarum ATCC MYA-4682; assay: MBC/MFC determination; format: cell-based; conditions: C. herbarum ATCC MYA-4682; plated 3 days after incubation; two values given
Protocol: as §1

P. aeruginosa ATCC 27853 [5] = assay: MBC/MFC determination; format: cell-based, Pseudomonas aeruginosa; conditions: plated after 18 to 20 hours incubation, two values given
Protocol: as §1

P. aeruginosa ATCC 27853 [6] = assay: MIC microdilution assay; format: cell-based, Pseudomonas aeruginosa; conditions: CAMHB, 35±2° C. 18 to 20 hours, two values given
Protocol: as §2, §3, §4, §5

Candida auris CDC 0381 [7] = assay: MIC microdilution assay; format: cell-based; conditions: C. auris CDC 0381; RPMI media; 35±2° C. 24 to 48 hours; two values given
Protocol: as §2, §3, §4
For the yeasts C. albicans and C. auris, a McFarland 0.5 standard solution in sterile PBS was similarly prepared (approximately 1×10^6 CFU/mL) and was subsequently diluted 1:180 in RPMI 1640 media buffered with 0.165 M MOPS at pH 7.0 (herein referred to as “RPMI media”). 90 μL of the Candida inoculum was combined with 10 μL of the 10× test article in a 96-well plate for a final concentration of 1×.
All bacterial-strain MIC 96-well plates were incubated at 35±2° C. for 18 to 20 hours, while all Candida MIC 96-well plates were incubated at 35±2° C. for 24 to 48 hours. C. herbarum MIC 96-well plates were incubated at 25±2° C. for 3 to 5 days, until growth was visible in the growth control wells. After incubation, the 96-well plates were examined visually and on a spectrophotometer at absorbance OD650. MIC is defined as the lowest concentration of a compound in which no visible growth is observed.

pH of aqueous solution = format: physicochemical; conditions: 2% solution in water
[8] = Dissolution of isolated product in water; format: physicochemical; conditions: observation

| SMILES | MBC/MFC (S. pyogenes ATCC 51339) | MIC [1] [µg/mL] | MBC/MFC [2] | MBC/MFC (Candida auris CDC 0381 [3]) [µg/mL] | MBC/MFC [4] [µg/mL] | MBC/MFC (P. aeruginosa ATCC 27853 [5]) [µg/mL] | MIC (P. aeruginosa ATCC 27853 [6]) [µg/mL] | MIC (Candida auris CDC 0381 [7]) [µg/mL] | pH of solution (pH of aqueous solution) | dissolution in water [8] |
| --- | --- | --- | --- | --- | --- | --- | --- | --- | --- | --- |
| CCCCCCCCCCCCCCCCCC[N+](C)(C)CCC[Si](OCC(CO)(CO)NCC(O)CS(=O)(=O)[O-])(OCC(CO)(CO)NCC(O)CS(=O)(=O)[O-])OCC(CO)(CO)NCC(O)CS(=O)(=O)O.[Cl-].[Na+].[Na+] (stereo not shown) [Compound 2] | >64 µg/mL and 64 µg/mL | 1 | 2 µg/mL and 1 µg/mL | 1 | 2 | >64 | >64 | 1 | – | – |
| CCCCCCCCCCCCCCCCCC[N+](C)(C)CCC[Si](OCC(CO)(CO)NCC(O)CS(=O)(=O)[O-])(OCC(CO)(CO)NCC(O)CS(=O)(=O)O)OCC(CO)(CO)NCC(O)CS(=O)(=O)O (stereo not shown) [Example 24, monosodium mono(8-(3-(dimethyl(octadecyl)ammonio)propyl)-2,14-dihydroxy-8-(3-hydroxy-2-((2-hydroxy-3-sulfopropyl)amino)-2-(hydroxymethyl)propoxy)-5,5,11,11-tetrakis(hydroxymethyl)-7,9-dioxa-4,12-diaza-8-silapentadecane-1,15-disulfonate); chloride] | – | – | – | – | – | – | – | – | 7.65 | readily dissolved in water |
